Data as given in patent publication US9095138B2, “Isoxazoline insecticides” (E.I. du Pont de Nemours and Company, priority 2007, dated 2015).

What was measured:
Type in all cases: in vivo
[1] = system: western flower thrips (Frankliniella occidentalis); assay: Test E: control of western flower thrips on Soleil bean plant, contact and/or systemic; conditions: sprayed at 250 ppm; adult thrips; assessed after 6 days; replicated three times
Experimental: (§1) Test compounds were formulated using a solution containing 10% acetone, 90% water and 300 ppm X-77™ Spreader Lo-Foam Formula non-ionic surfactant containing alkylarylpolyoxyethylene, free fatty acids, glycols and isopropanol (Loveland Industries, Inc. Greeley, Colo., USA). The formulated compounds were applied in 1 mL of liquid through a SUJ2 atomizer nozzle with ⅛ JJ custom body (Spraying Systems Co. Wheaton, Ill., USA) positioned 1.27 cm (0.5 inches) above the top of each test unit. All experimental compounds in these tests were sprayed at 50 ppm, and the test was replicated three times. After spraying of the formulated test compound, each test unit was allowed to dry for 1 h and then a black, screened cap was placed on top. The test units were held for 6 days in a growth chamber at 25° C. and 70% relative humidity. Plant feeding damage was then visually assessed based on foliage consumed and a pest mortality rating was also counted and calculated for each test unit.
For evaluating control of the western flower thrips (Frankliniella occidentalis) through contact and/or systemic means, the test unit consisted of a small open container with a 5-7 day old Soleil Bean plant inside. Test compounds were formulated and sprayed as described for Test A. All experimental compounds in these tests were sprayed at 250 or 50 ppm as noted, and the test was replicated three times. After spraying, the test units were allowed to dry for 1 hour and then 22-27 adult thrips were added to each unit and then a black, screened cap was placed on top. The test units were held for 6 days at 25° C. and 45-55% relative humidity. A mortality rating was assessed along with a plant damage rating for each test unit.

[2] = system: diamondback moth (Plutella xylostella); assay: Test A: control of diamondback moth on radish plant, foliar spray; conditions: sprayed at 50 ppm; neonate larvae on radish; assessed after 6 days; replicated three times
Text: For evaluating control of diamondback moth (Plutella xylostella) the test unit consisted of a small open container with a 12-14-day-old radish plant inside. This was pre-infested with about 50 neonate larvae that were dispensed into the test unit via corn-cob grits using a bazooka inoculator. The larvae moved onto the test plant after being dispensed into the test unit.
as §1

[3] = system: fall armyworm (Spodoptera frugiperda); assay: Test B: control of fall armyworm on corn (maize) plant, foliar spray; conditions: sprayed at 50 ppm; 1-day-old larvae on corn; replicated three times
Experimental: as §1
For evaluating control of fall armyworm (Spodoptera frugiperda) the test unit consisted of a small open container with a 4-5-day-old corn (maize) plant inside. This was pre-infested (using a core sampler) with 10-15 1-day-old larvae on a piece of insect diet. Test compounds were formulated and sprayed at 50 ppm as described for Test A and replicated three times. After spraying, the test units were maintained in a growth chamber and then the control efficacy was rated for each test unit as described for Test A.

Compound	control efficacy (feeding damage or mortality): very good to excellent levels [1]	control efficacy (feeding damage or mortality): very good to excellent levels [2]	control efficacy (feeding damage or mortality): very good to excellent levels [3]
CSCCNC(=O)CNC(=O)c1ccc(C2=NOC(c3cc(Cl)c(Cl)c(Cl)c3)(C(F)(F)F)C2)c2ccccc12 (stereo not drawn) [Compound 49]	20% or less feeding damage or 80% or more mortality	20% or less feeding damage or 80% or more mortality	20% or less feeding damage or 80% or more mortality
O=C(NCC1CCCO1)c1ccc(C2=NOC(c3cc(C(F)(F)F)cc(C(F)(F)F)c3)(C(F)(F)F)C2)c2ccccc12 (stereo not drawn) [Compound 27]		20% or less feeding damage or 80% or more mortality	20% or less feeding damage or 80% or more mortality
O=C(CNC(=O)c1ccc(C2=NOC(c3cc(Cl)cc(Cl)c3)(C(F)(F)F)C2)c2ccccc12)NC1CCCCC1 (stereo not drawn) [Compound 51]		20% or less feeding damage or 80% or more mortality	20% or less feeding damage or 80% or more mortality
O=C(CNC(=O)c1ccc(C2=NOC(c3cc(Cl)cc(Cl)c3)(C(F)(F)F)C2)c2ccccc12)NC1CCCC1 (stereo not drawn) [Compound 52]		20% or less feeding damage or 80% or more mortality	20% or less feeding damage or 80% or more mortality
O=C(NCCn1ccc(C(F)(F)F)n1)c1ccc(C2=NOC(c3cccc(C(F)(F)F)c3)(C(F)(F)F)C2)c2ccccc12 (stereo not drawn) [Compound 17]		20% or less feeding damage or 80% or more mortality	20% or less feeding damage or 80% or more mortality
CC(NC(=O)c1ccc(C2=NOC(c3cc(Br)cc(C(F)(F)F)c3)(C(F)(F)F)C2)c2ccccc12)C(=O)O (mixture of isomers) [Compound 38]		20% or less feeding damage or 80% or more mortality	20% or less feeding damage or 80% or more mortality
O=C(NCC(F)(F)F)[C@H]1CCCN1C(=O)c1ccc(C2=NOC(c3cc(Cl)cc(Cl)c3)(C(F)(F)F)C2)c2ccccc12 (stereo partly drawn) [Compound 102]		20% or less feeding damage or 80% or more mortality	20% or less feeding damage or 80% or more mortality
O=C(NCC(=O)N1CCCC1C(F)(F)F)c1ccc(C2=NOC(c3cc(Cl)cc(Cl)c3)(C(F)(F)F)C2)c2ccccc12 (stereo not drawn) [Compound 91]		20% or less feeding damage or 80% or more mortality	20% or less feeding damage or 80% or more mortality
O=C(CNC(=O)c1ccc(C2=NOC(c3cccc(C(F)(F)F)c3)(C(F)(F)F)C2)c2ccccc12)NC1CC1 (stereo not drawn) [Compound 54]		20% or less feeding damage or 80% or more mortality	20% or less feeding damage or 80% or more mortality
O=C(CNC(=O)c1ccc(C2=NOC(c3cccc(OC(F)(F)F)c3)(C(F)(F)F)C2)c2ccccc12)NCC1CC1 (stereo not drawn) [Compound 60]		20% or less feeding damage or 80% or more mortality	20% or less feeding damage or 80% or more mortality
Cn1ccc2c(C(=O)NCC[S+](C)[O-])ccc(C3=NOC(c4cc(Cl)cc(Cl)c4)(C(F)(F)F)C3)c21 (stereo not drawn) [Compound 111]		20% or less feeding damage or 80% or more mortality	20% or less feeding damage or 80% or more mortality
O=C(NCC(Cl)CCCCl)c1ccc(C2=NOC(c3cc(Cl)cc(Cl)c3)(C(F)(F)F)C2)c2ccccc12 (mixture of isomers) [Compound 14]		20% or less feeding damage or 80% or more mortality	20% or less feeding damage or 80% or more mortality
CC1(C)OCC(CNC(=O)c2ccc(C3=NOC(c4cccc(C(F)(F)F)c4)(C(F)(F)F)C3)c3ccccc23)O1 (stereo not drawn) [Compound 19]		20% or less feeding damage or 80% or more mortality	20% or less feeding damage or 80% or more mortality
O=C(NCCn1cncn1)c1ccc(C2=NOC(c3cccc(C(F)(F)F)c3)(C(F)(F)F)C2)c2ccccc12 (stereo not drawn) [Compound 18]		20% or less feeding damage or 80% or more mortality	20% or less feeding damage or 80% or more mortality
O=C(NCCCSCC(F)(F)F)c1ccc(C2=NOC(c3cccc(C(F)(F)F)c3)(C(F)(F)F)C2)c2ccccc12 (racemic) [Compound 21]		20% or less feeding damage or 80% or more mortality	20% or less feeding damage or 80% or more mortality
O=C(O)CNC(=O)c1ccc(C2=NOC(c3cc(C(F)(F)F)cc(C(F)(F)F)c3)(C(F)(F)F)C2)c2ccccc12 (racemic) [Compound 15]		20% or less feeding damage or 80% or more mortality	20% or less feeding damage or 80% or more mortality
COC(=O)[C@H]1CCCN1C(=O)c1ccc(C2=NOC(c3cc(Cl)cc(Cl)c3)(C(F)(F)F)C2)c2ccccc12 (stereo partly drawn) [Compound 98]	20% or less feeding damage or 80% or more mortality	20% or less feeding damage or 80% or more mortality	
O=C(NCC1CCCO1)c1ccc(C2=NOC(c3cccc(C(F)(F)F)c3)(C(F)(F)F)C2)c2ccccc12 (stereo not drawn) [Compound 20]		20% or less feeding damage or 80% or more mortality	20% or less feeding damage or 80% or more mortality
O=C(CNC(=O)c1ccc(C2=NOC(c3cc(Cl)cc(Cl)c3)(C(F)(F)F)C2)c2ccccc12)NCc1ccccn1 (stereo not drawn) [Compound 45]	20% or less feeding damage or 80% or more mortality	20% or less feeding damage or 80% or more mortality	
O=C(CNC(=O)c1ccc(C2=NOC(c3cccc(Br)c3)(C(F)(F)F)C2)c2ccccc12)NCC1CC1 (stereo not drawn) [Compound 56]		20% or less feeding damage or 80% or more mortality	20% or less feeding damage or 80% or more mortality
CC(NC(=O)c1ccc(C2=NOC(c3cc(Cl)cc(C(F)(F)F)c3)(C(F)(F)F)C2)c2ccccc12)C(=O)O (mixture of isomers) [Compound 32]		20% or less feeding damage or 80% or more mortality	20% or less feeding damage or 80% or more mortality
CCC(CO)NC(=O)c1ccc(C2=NOC(c3cccc(C(F)(F)F)c3)(C(F)(F)F)C2)c2ccccc12 (mixture of isomers) [Compound 16]		20% or less feeding damage or 80% or more mortality	20% or less feeding damage or 80% or more mortality
